Data taken from EPA's ToxRefDB 2.

Tests used:
rabbit = details: Prenatal developmental toxicity study, new zealand white, Oral, Gavage/Intubation, dose end: 18 GD
rat [1] = details: Prenatal developmental toxicity study, sprague dawley, Oral, Gavage/Intubation, dose end: 15 GD
dog [2] = details: Subchronic oral toxicity in nonrodent, beagle, Capsule, dose end: 90 day, group: systemic, systemic / pathology microscopic / liver / [other] + systemic / pathology microscopic / liver / hypertrophy + systemic / pathology …
rat [3] = details: Subchronic oral toxicity in rodents, sprague dawley, Gavage/Intubation, dose end: 90 day, group: systemic, systemic / organ weight / liver / absolute + systemic / organ weight / liver / relative to body weight + systemic / pathology microscopic / …
dog [4] = details: Subchronic oral toxicity in nonrodent, beagle, Capsule, dose end: 90 day, group: systemic
rat [5] = details: Subchronic oral toxicity in rodents, fischer, Water, dose end: 13 week
guinea-pig = details: Subchronic dermal toxicity, hartley, Topical, dose end: 13 week, group: systemic, systemic / clinical chemistry / creatine phosphokinase / creatine phosphokinase + systemic / clinical chemistry / lactic acid dehydrogenase…
rat [6] = details: Developmental neurotoxicity study, sprague dawley, Oral, Feed, dose end: 63 PND, group: cannot be grouped
mouse = details: Subchronic oral toxicity in rodents, b6c3f1, Water, dose end: 13 week
rat [7] = details: Prenatal developmental toxicity study, sprague dawley, Inhalation, Whole-Body, dose end: 15 GD
rat [8] = details: Subchronic oral toxicity in rodents, other, Feed, dose end: 17 week, group: systemic
rat [9] = details: Multigenerational reproductive toxicity study, sprague dawley, Oral, Feed, dose end: 2 generation
rat [10] = details: Sub-acute repeat dose toxicity, Sprague Dawley, Oral, Gavage/Intubation, dose end: 28 day
rat [11] = details: Multigenerational reproductive toxicity study, sprague dawley, Oral, Feed, dose end: 3 generation
rat [12] = details: Multigenerational reproductive toxicity study, sprague dawley, Oral, Feed, dose end: 3 generation; remark: listed apart in the source
[13] = group: developmental, developmental / developmental malformation / bone / misshapen
[14] = group: maternal, reproductive / reproductive performance / postimplantation loss / postimplantation loss + systemic / in life observation / body weight / …
[15] = group: developmental, systemic / in life observation / body weight / fetal weight
[16] = group: maternal, systemic / in life observation / clinical signs / respiration (rales) + systemic / in life observation / clinical signs / salivation + …
[17] = systemic / pathology microscopic / liver / cytoplasmic alteration + systemic / pathology microscopic / liver / vacuolization
[18] = systemic / pathology microscopic / liver / cytoplasmic alteration + systemic / pathology microscopic / liver / vacuolization + systemic / …
[19] = group: maternal, reproductive / reproductive performance / estrous cycle / abnormal
[20] = group: systemic, systemic / organ weight / thymus / absolute + systemic / organ weight / thymus / relative to body weight
[21] = reproductive / reproductive performance / resorptions / resorptions + systemic / in life observation / body weight / body weight gain + …
[22] = systemic / in life observation / body weight / fetal weight
[23] = group: systemic, systemic / organ weight / testes / absolute + systemic / organ weight / testes / relative to body weight + systemic / pathology gross / …
[24] = group: systemic, systemic / pathology gross / sperm measure / sperm count + systemic / pathology gross / sperm measure / sperm motility
[25] = group: developmental, developmental / developmental malformation / bone / short + developmental / developmental malformation / bone / wavy + developmental / …
[26] = group: developmental, developmental / developmental malformation / bone / wavy + developmental / developmental malformation / brain / dilated cerebral ventricle…
[27] = group: maternal, reproductive / reproductive performance / resorptions / resorptions
[28] = systemic / in life observation / body weight / body weight gain + systemic / in life observation / food consumption / food consumption + …
[29] = group: offspring, systemic / hematology / leukocyte (wbc) count differential / leukocyte (wbc) + systemic / hematology / monocytes / monocytes
[30] = group: offspring, systemic / hematology / leukocyte (wbc) count differential / leukocyte (wbc) + systemic / in life observation / body weight / offspring (pup…
[31] = group: parental, systemic / hematology / leukocyte (wbc) count differential / leukocyte (wbc) + systemic / in life observation / body weight / body weight
[32] = group: systemic, systemic / clinical chemistry / glucose / glucose + systemic / clinical chemistry / luteinizing hormone (lh) / luteinizing hormone (lh) + …
[33] = group: offspring, developmental / developmental landmark / vaginal opening / vaginal opening + systemic / in life observation / body weight / offspring (pup) …
[34] = group: parental, systemic / in life observation / body weight / body weight + systemic / organ weight / kidney / relative to body weight + systemic / organ …
[35] = group: parental, systemic / pathology microscopic / kidney / mineralization + systemic / pathology microscopic / kidney / cyst + systemic / pathology …
[36] = group: reproductive, reproductive / offspring survival early / litter size / litter size + reproductive / reproductive performance / estrous cycle / length + …
[37] = group: reproductive, reproductive / reproductive performance / gestational length / gestational length
[38] = group: offspring, developmental / developmental landmark / preputial separation / preputial separation + systemic / in life observation / body weight / …
[39] = group: offspring, systemic / in life observation / food consumption / food consumption + systemic / pathology microscopic / kidney / degeneration
[40] = group: parental, systemic / in life observation / food consumption / food consumption + systemic / organ weight / kidney / relative to body weight
[41] = group: parental, systemic / pathology gross / sperm measure / sperm morphology
[42] = group: reproductive, reproductive / offspring survival early / live fetuses / live fetuses

SMILES: CCCCCC(C)(CC)C(=O)NC (centres undefined) [N-Methylneodecanamide]
- LEL (rabbit; [13]): 200 mg/kg/day
- LOAEL (rabbit; [13]): 200 mg/kg/day
- NEL (rabbit; [13]): 100 mg/kg/day
- NOAEL (rabbit; [13]): 100 mg/kg/day
- LEL (rabbit; [14]): 200 mg/kg/day
- LOAEL (rabbit; [14]): 200 mg/kg/day
- NEL (rabbit; [14]): 100 mg/kg/day
- NOAEL (rabbit; [14]): 100 mg/kg/day
- LEL (rat [1]; [15]): 400 mg/kg/day
- LOAEL (rat [1]; [15]): 400 mg/kg/day
- NEL (rat [1]; [15]): 125 mg/kg/day
- NOAEL (rat [1]; [15]): 125 mg/kg/day
- LEL (rat [1]; [16]): 125 mg/kg/day
- LOAEL (rat [1]; [16]): 125 mg/kg/day
- NEL (rat [1]; [16]): 40 mg/kg/day
- NOAEL (rat [1]; [16]): 40 mg/kg/day
- LEL (dog [2]): 4.52 mg/kg/day
- LOAEL (dog [2]): 4.52 mg/kg/day
- NEL (dog [2]): 1.35 mg/kg/day
- NOAEL (dog [2]): 1.35 mg/kg/day
- LEL (rat [3]): 30 mg/kg/day
- LOAEL (rat [3]): 30 mg/kg/day
- NEL (rat [3]): 3 mg/kg/day
- NOAEL (rat [3]): 3 mg/kg/day
- LOAEL (dog [4]; [17]): 13.5 mg/kg/day
- NOAEL (dog [4]; [17]): < 13.5 mg/kg/day
- LEL (dog [4]; [18]): 13.5 mg/kg/day
- NEL (dog [4]; [18]): < 13.5 mg/kg/day

SMILES: COCCO [2-Methoxyethanol]
- LEL (rat [5]; [19]): 135 mg/kg/day
- LOAEL (rat [5]; [19]): > 785 mg/kg/day
- NEL (rat [5]; [19]): 70 mg/kg/day
- NOAEL (rat [5]; [19]): ≥ 785 mg/kg/day
- LOAEL (rat [5]; group: systemic, systemic / in life observation / body weight / body weight + systemic / pathology microscopic / spleen / fibrosis): 135 mg/kg/day
- NOAEL (rat [5]; group: systemic, systemic / in life observation / body weight / body weight + systemic / pathology microscopic / spleen / fibrosis + systemic / clinical …): 70 mg/kg/day
- LEL (rat [5]; [20]): 70 mg/kg/day
- NEL (rat [5]; [20]): < 70 mg/kg/day
- LEL (guinea-pig): 1000 mg/kg/day
- LOAEL (guinea-pig): > 1000 mg/kg/day
- NEL (guinea-pig): < 1000 mg/kg/day
- NOAEL (guinea-pig): ≥ 1000 mg/kg/day
- LOAEL (rat [6]; [21]): > 620 mg/kg/day
- NOAEL (rat [6]; [21]): ≥ 620 mg/kg/day
- LEL (rat [6]; [22]): 16 mg/kg/day
- NEL (rat [6]; [22]): < 16 mg/kg/day
- LEL (mouse; [19]): 492 mg/kg/day
- LOAEL (mouse; [19]): > 1840 mg/kg/day
- NEL (mouse; [19]): < 492 mg/kg/day
- NOAEL (mouse; [19]): ≥ 1840 mg/kg/day
- LOAEL (mouse; [23]): 529 mg/kg/day
- NOAEL (mouse; [23]): 295 mg/kg/day
- LEL (mouse; [24]): 295 mg/kg/day
- NEL (mouse; [24]): < 295 mg/kg/day
- LOAEL (rat [7]; [25]): > 200 ppm
- NOAEL (rat [7]; [25]): ≥ 200 ppm
- LEL (rat [7]; [26]): 50 ppm
- NEL (rat [7]; [26]): < 50 ppm
- LEL (rat [7]; [27]): 50 ppm
- LOAEL (rat [7]; [27]): > 200 ppm
- NEL (rat [7]; [27]): < 50 ppm
- NOAEL (rat [7]; [27]): ≥ 200 ppm

SMILES: CC(C)CCCCCCc1ccc(O)cc1 [4-Nonylphenol, branched]
- LEL (rat [8]; systemic / in life observation / body weight / body weight): 50 mg/kg/day
- NEL (rat [8]; systemic / in life observation / body weight / body weight + systemic / in life observation / body weight / body weight gain + systemic / …): 15 mg/kg/day
- LOAEL (rat [8]; [28]): > 150 mg/kg/day
- NOAEL (rat [8]; [28]): ≥ 150 mg/kg/day
- LEL (rat [9]; [29]): 1.25 mg/kg/day
- NEL (rat [9]; [29]): < 1.25 mg/kg/day
- LOAEL (rat [9]; [30]): > 100 mg/kg/day
- NOAEL (rat [9]; [30]): ≥ 100 mg/kg/day
- LEL (rat [9]; [31]): 100 mg/kg/day
- LOAEL (rat [9]; [31]): > 100 mg/kg/day
- NEL (rat [9]; [31]): 25 mg/kg/day
- NOAEL (rat [9]; [31]): ≥ 100 mg/kg/day
- LEL (rat [10]; [19]): 250 mg/kg/day
- LOAEL (rat [10]; [19]): > 250 mg/kg/day
- NEL (rat [10]; [19]): 50 mg/kg/day
- NOAEL (rat [10]; [19]): ≥ 250 mg/kg/day
- LEL (rat [10]; [32]): 50 mg/kg/day
- LOAEL (rat [10]; [32]): > 250 mg/kg/day
- NEL (rat [10]; [32]): 10 mg/kg/day
- NOAEL (rat [10]; [32]): ≥ 250 mg/kg/day
- NEL (rat [11]; group: offspring, developmental / developmental landmark / vaginal opening / vaginal opening): 10 mg/kg/day
- LEL (rat [11]; [33]): 32.5 mg/kg/day
- LOAEL (rat [11]; [33]): > 100 mg/kg/day
- NOAEL (rat [11]; [33]): ≥ 100 mg/kg/day
- LOAEL (rat [11]; [34]): > 100 mg/kg/day
- NOAEL (rat [11]; [34]): ≥ 100 mg/kg/day
- LEL (rat [11]; [35]): 10 mg/kg/day
- NEL (rat [11]; [35]): < 10 mg/kg/day
- LOAEL (rat [11]; [36]): > 100 mg/kg/day
- NOAEL (rat [11]; [36]): ≥ 100 mg/kg/day
- LEL (rat [11]; [37]): 10 mg/kg/day
- NEL (rat [11]; [37]): < 10 mg/kg/day
- LOAEL (rat [12]; [38]): > 171 mg/kg/day
- NOAEL (rat [12]; [38]): ≥ 171 mg/kg/day
- LEL (rat [12]; [39]): 18 mg/kg/day
- NEL (rat [12]; [39]): < 18 mg/kg/day
- LOAEL (rat [12]; [40]): > 122 mg/kg/day
- NOAEL (rat [12]; [40]): ≥ 122 mg/kg/day
- LEL (rat [12]; [41]): 18 mg/kg/day
- NEL (rat [12]; [41]): < 18 mg/kg/day
- LEL (rat [12]; [42]): 171 mg/kg/day
- LOAEL (rat [12]; [42]): > 171 mg/kg/day
- NEL (rat [12]; [42]): 53 mg/kg/day
- NOAEL (rat [12]; [42]): ≥ 171 mg/kg/day
